US20050208496A1, “Methods of testing for bronchial asthma or chronic obstructive pulmonary disease” (Genox Research, Inc., priority 2002, published 2005)
Values joined by “and” are separate entries in the source; they are usually repeats but may differ in a detail not shown here. Identical values can stand only once.

Tested on: mouse counterpart genes
Test: Mouse GeneChip (MG-U74A to MG-U74C) analysis of lung and trachea of the OVA antigen-exposed bronchial hypersensitivity model, S-Sal group versus S-OVA group
Format: in vivo
[1] = S-Sal vs S-OVA group, 2nd, P/A: P
[2] = S-Sal vs S-OVA group, 3rd, P/A: A
[3] = S-Sal vs S-OVA group, 3rd, P/A: P

“ovalbumin [OVA antigen, ovalbumin antigen used for sensitization and inhalation to induce bronchial hypersensitivity in mice]” was tested, and the “Fold Change, cathepsin C (mouse Probe ID 101019_at)” value [1] was 1.1, the “Fold Change, dual specificity phosphatase 14 (mouse Probe ID 162702_at)” value [1] was 1.1 and the “Fold Change, expressed sequence AI839647 (mouse Probe ID 110839_at)” value [1] was 0.833. The “Fold Change, integrin-associated protein (mouse Probe ID 103611_at)” value [1] was 1, the “Fold Change, neutrophil cytosolic factor 2 (mouse Probe ID 102326_at)” value [1] was 2.2 and the “Fold Change, reticulocalbin 2 (mouse Probe ID 93281_at)” value [1] was 0.833. The “Fold Change, ribosomal protein S16 (mouse Probe ID 97647_at)” value [1] was 1, the “Fold Change, serine (or cysteine) proteinase inhibitor, clade B (ovalbumin), member 2 (mouse Probe ID 92978_s_at)” value [1] was 0.455 and the “Fold Change, signal transducer and activator of transcription 1 (mouse Probe ID 101465_at)” value [1] was 1.6. For the same substance, the “Fold Change, signal transducer and activator of transcription 1 (mouse Probe ID 114635_at)” value [1] was 1.9, the “Fold Change, zinc finger protein 263 (mouse Probe ID 109154_at)” value (shortened to “Fold Change … (mouse Probe ID 109154_at)”) [1] was 0.833 and the “Fold Change, DNA-damage inducible transcript 3 (mouse Probe ID 101429_at)” value [2] was 0.625. The “Fold Change, RAS guanyl releasing protein 1 (mouse Probe ID 98307_at)” value [2] was 1.3, the “Fold Change, RAS guanyl releasing protein 1 (mouse Probe ID 167498_i_at)” value [2] was 2.4 and the “Fold Change, RIKEN cDNA A2301D9K23 gene (mouse Probe ID 163453_at)” value [2] was 1.4. The “Fold Change, acid phosphatase 5, tartrate resistant (mouse Probe ID 162543_r_at)” value [2] was 8.7, the “Fold Change, cathepsin C (mouse Probe ID 161251_f_at)” value [2] was 1.2 and the “Fold Change, dual specificity phosphatase 14 (mouse Probe ID 165144_r_at)” value [2] was 1.1. The “Fold Change, dual specificity phosphatase 14 (mouse Probe ID 171285_at)” value [2] was 2.3, the “Fold Change, keratin complex 1, acidic, gene 16 (mouse Probe ID 103589_at)” value [2] was 1.1 and the “Fold Change, keratin complex 1, acidic, gene 16 (mouse Probe ID 164428_i_at)” value [2] was 0.625. The “Fold Change, nuclear factor, interleukin 3, regulated (mouse Probe ID 164758_i_at)” value [2] was 1.3, the “Fold Change, ribosomal protein S16 (mouse Probe ID 169860_r_at)” value [2] was 1.1 and the “Fold Change, serine (or cysteine) proteinase inhibitor, clade B (ovalbumin), member 2 (mouse Probe ID 92978_s_at)” value [2] was 1.7. For the same substance, the “Fold Change, serine (or cysteine) proteinase inhibitor, clade B (ovalbumin), member 2 (mouse Probe ID 137166_r_at)” value [2] was 1.2, the “Fold Change, ubiquitin D (mouse Probe ID 92715_at)” value [2] was 0.625 and the “Fold Change, ubiquitin D (mouse Probe ID 168938_r_at)” value [2] was 1.4. The “Fold Change, ubiquitin D (mouse Probe ID 169362_f_at)” value [2] was 0.667, the “Fold Change, DEAD (aspartate-glutamate-alanine-aspartate) box polypeptide 5 (mouse Probe ID 93493_at)” value [3] was 1.1 and the “Fold Change, DEAD (aspartate-glutamate-alanine-aspartate) box polypeptide 5 (mouse Probe ID 113899_at)” value [3] was 1.4. The “Fold Change, RIKEN cDNA 4933419D20 gene (mouse Probe ID 97442_at)” value [3] was 0.833, the “Fold Change, RIKEN cDNA 4933419D20 gene (mouse Probe ID 112237_at)” value [3] was 1 and the “Fold Change, acid phosphatase 5, tartrate resistant (mouse Probe ID 98859_at)” value [3] was 1.7. The “Fold Change, cathepsin C (mouse Probe ID 101019_at)” value [3] was 1, the “Fold Change, cytokine inducible SH2-containing protein 1 (mouse Probe ID 92832_at)” value [3] was 1.5 and the “Fold Change, dual specificity phosphatase 14 (mouse Probe ID 162702_at)” value [3] was 1. The “Fold Change, expressed sequence AI463430 (mouse Probe ID 112883_at)” value [3] was 1.5, the “Fold Change, fatty acid binding protein 4, adipocyte (mouse Probe ID 100567_at)” value [3] was 1.1 and the “Fold Change, integrin-associated protein (mouse Probe ID 103611_at)” value [3] was 1. For the same substance, the “Fold Change, neutrophil cytosolic factor 2 (mouse Probe ID 102326_at)” value [3] was 1.2, the “Fold Change, ribosomal protein S16 (mouse Probe ID 97647_at)” value [3] was 1 and the “Fold Change, signal transducer and activator of transcription 1 (mouse Probe ID 101465_at)” value [3] was 1. For the same substance, the “Fold Change, signal transducer and activator of transcription 1 (mouse Probe ID 114635_at)” value [3] was 1.1, the “Fold Change, ubiquitin fusion degradation 1 like (mouse Probe ID 93303_at)” value [3] was 1.3 and the “Fold Change … (mouse Probe ID 109154_at)” value [3] was 1.3. For the same substance, the “Fold Change, A kinase (PRKA) anchor protein 10 (mouse probe 163162_at)” value (mouse, in vivo) was 0.769, the “Fold Change, DNA segment. Chr 16. ERATO Doi 269, expressed (mouse probe 97821_at)” value (mouse, in vivo) was 0.909 and the “Fold Change, DNA segment. Chr 16. ERATO Doi 269, expressed (mouse probe 97822_at)” value (mouse, in vivo) was 0.909. The “Fold Change, DnaJ (Hsp40) homolog, subfamily A, member 1 (mouse Probe ID 97261_at)” value (mouse, in vivo) was 0.909, the “Fold Change, ESTs AI844322 (mouse Probe ID 110469_at)” value (mouse, in vivo) was 0.909 and 0.769 and the “Fold Change, MP and activin membrane-bound inhibitor, homolog (Xanopus laevis) (mouse probe 162531_at)” value (mouse, in vivo) was 0.769. For the same substance, the “Fold Change, RIKEN cDNA 6330404C01 gene (mouse Probe ID 166590_at)” value (mouse, in vivo) was 0.769, the “Fold Change, RIKEN cDNA A2301D9K23 gene (mouse Probe ID 166475_r_at)” value (mouse, in vivo) was 0.714 and the “Fold Change, SAM domain and HD domain, 1 (mouse Probe ID 103080_at)” value (mouse, in vivo) was 0.909. The “Fold Change, a disintegrin and metalloprotease domain 8 (mouse probe 103024_at)” value (mouse, in vivo) was 0.769, the “Fold Change, a disintegrin and metalloprotease domain 28 (mouse probe 101723_r_at)” value (mouse, in vivo) was 0.714 and 0.769 and the “Fold Change, acid phosphatase 5, tartrate resistant (mouse Probe ID 98859_at)” value (mouse, in vivo) was 0.769. The “Fold Change, cadherin 6 (mouse Probe ID 101730_at)” value (mouse, in vivo) was 0.714, the “Fold Change, cathepsin C (mouse Probe ID 101020_at)” value (mouse, in vivo) was 0.909 and the “Fold Change, cholesterol 25-hydroxylase (mouse probe 133666_at)” value (mouse, in vivo) was 0.909 and 0.769. For the same substance, the “Fold Change, claudin 5 (mouse probe 104516_at)” value (mouse, in vivo) was 0.769, the “Fold Change, decay accelerating factor 1 (mouse probe 164905_r_at)” value (mouse, in vivo) was 0.769 and the “Fold Change, dipeptidylpeptidase 4 (mouse Probe ID 92634_at)” value (mouse, in vivo) was 0.714. For the same substance, the “Fold Change, dual specificity phosphatase 14 (mouse Probe ID 171285_at)” value (mouse, in vivo) was 0.909, the “Fold Change, expressed sequence AI463430 (mouse Probe ID 112883_at)” value (mouse, in vivo) was 0.909 and the “Fold Change, expressed sequence AI839647 (mouse Probe ID 110839_at)” value (mouse, in vivo) was 0.909. The “Fold Change, fatty acid binding protein 4, adipocyte (mouse Probe ID 100567_at)” value (mouse, in vivo) was 0.714, the “Fold Change, fetuin beta (mouse Probe ID 108524_at)” value (mouse, in vivo) was 0.714 and the “Fold Change, fructose bisphosphatase 1 (mouse Probe ID 96918_at)” value (mouse, in vivo) was 0.769. For the same substance, the “Fold Change, growth arrest and DNA-damage-inducible 45 gamma (mouse Probe ID 109336_at)” value (mouse, in vivo) was 0.909, the “Fold Change, hydroxysteroid (17-beta) dehydrogenase 2 (mouse Probe ID 101891_at)” value (mouse, in vivo) was 0.909 and the “Fold Change, hydroxysteroid (17-beta) dehydrogenase 2 (mouse Probe ID 166141_i_at)” value (mouse, in vivo) was 0.714. For the same substance, the “Fold Change, hydroxysteroid (17-beta) dehydrogenase 2 (mouse Probe ID 169670_at)” value (mouse, in vivo) was 0.769 and 0.909, the “Fold Change, intercellular adhesion molecule (mouse Probe ID 96752_at)” value (mouse, in vivo) was 0.714 and the “Fold Change, interferon gamma inducible protein 30 (mouse probe 164423_at)” value (mouse, in vivo) was 0.714. The “Fold Change, interleukin 1 receptor-like 1 (mouse probe 98501_at)” value (mouse, in vivo) was 0.769, the “Fold Change, low density lipoprotein receptor-related protein associated protein 1 (mouse probe 100086_at)” value (mouse, in vivo) was 0.714 and the “Fold Change, low density lipoprotein receptor-related protein associated protein 1 (mouse probe 161988_f_at)” value (mouse, in vivo) was 0.714. The “Fold Change, matrix metalloproteinase 7 (mouse probe 162318_r_at)” value (mouse, in vivo) was 0.769, the “Fold Change, membrane-associated protein 17 (mouse probe 96935_at)” value (mouse, in vivo) was 0.909 and the “Fold Change, neurotrophic tyrosine kinase, receptor type 1 (mouse probe 110116_at)” value (mouse, in vivo) was 0.909. For the same substance, the “Fold Change, nitric oxide synthase 2, inducible, macrophage (mouse Probe ID 104420_at)” value (mouse, in vivo) was 0.714, the “Fold Change, nuclear factor, interleukin 3, regulated (mouse Probe ID 164758_i_at)” value (mouse, in vivo) was 0.714 and the “Fold Change, osteoblast specific factor 2 (fasciclin I-like) (mouse Probe ID 92593_at)” value (mouse, in vivo) was 0.909. The “Fold Change, phosphotidylinositol transfer protein, beta (mouse probe 102696_s_at)” value (mouse, in vivo) was 0.714, the “Fold Change, polycystic kidney disease 2 (mouse probe 100951_at)” value (mouse, in vivo) was 0.769 and the “Fold Change, procollagen lysine, 2-oxoglutarate 5-dioxygenase 2 (mouse Probe ID 114376_at)” value (mouse, in vivo) was 0.909. The “Fold Change, reticulocalbin 2 (mouse Probe ID 93281_at)” value (mouse, in vivo) was 0.909, the “Fold Change, serine (or cysteine) proteinase inhibitor, clade B (ovalbumin), member 6 (mouse Probe ID 96060_at)” value (mouse, in vivo) was 0.714 and the “Fold Change, sialyltransferase 1 (beta-galactoside alpha-2,6-sialyltransferase) (mouse Probe ID 167200_r_at)” value (mouse, in vivo) was 0.769 and 0.909. The “Fold Change, thioredoxin reductase 1 (mouse Probe ID 99985_at)” value (mouse, in vivo) was 0.909, the “Fold Change, thioredoxin reductase 1 (mouse Probe ID 161284_r_at)” value (mouse, in vivo) was 0.909 and 0.769 and the “Fold Change, transforming growth factor, beta 2 (mouse Probe ID 93300_at)” value (mouse, in vivo) was 0.769. The “Fold Change, transmembrane 4 superfamily member 8 (mouse Probe ID 97912_at)” value (mouse, in vivo) was 0.769, the “Fold Change, ubiquitin D (mouse Probe ID 92715_at)” value (mouse, in vivo) was 0.714 and the “Fold Change … (mouse Probe ID 109154_at)” value (mouse, in vivo) was 0.769.
